Data published in patent US12194042B2, “Uses” (INTRA-CELLULAR THERAPIES, INC., priority 2018, dated 2025).
Entries after “also recorded” stand apart in the source; their conditions may differ.

Assays:
Assay type in all cases: in vivo, human
[1] = tested on: patients with mild to moderate Parkinson's Disease (PD); test: Phase 1/2 randomized, double-blind, placebo-controlled, multiple rising dose clinical study: safety and tolerability
Method: (§1) A Phase 1/2 randomized, double-blind, placebo-controlled, multiple rising dose clinical study was carried out to evaluate Compound 1 (below) in patients with mild to moderate Parkinson's Disease (PD).
(§2) The study is designed to evaluate the safety and tolerability of Compound 1 in patients who are maintained on stable PD therapy. Another objective is to evaluate the pharmacokinetic profile of Compound 1 and explore its potential utility to control motor fluctuations and to evaluate treatment of non-motor symptoms (e.g., daytime sleepiness, dysautonomia) associated with PD. Biomarkers of disease progression (i.e., inflammation) are assessed.
(§3) 40 patients with idiopathic PD are recruited for the study. Patients with mild to moderate PD (Hoehn and Yahr staging score of 1-3 assessed in the “On” state) maintained on stable PD therapy are randomly assigned to placebo or 5 cohorts of Compound 1 at 1 mg, 3 mg, 10 mg, 30 mg, and 90 mg administered orally once daily for 7 days. All patients participating in the study are maintained on their stable PD therapy (e.g., dopamine replacement therapies), some of which are taking more than one category of PD therapy. Of the 40 patients, there are 28 receiving carbidopa/L-dopa, 14 receiving a dopamine agonist, 5 receiving amantadine, and 3 receiving MAO inhibitors.

[2] = tested on: patients with mild to moderate Parkinson's Disease (PD); test: Unified Parkinson's Disease Rating Scale (MDS-UPDRS) in the Phase 1/2 study
Method: as §1, §3
(§4) The efficacy of Compound 1 in improving motor and non-motor symptoms of PD is measured using multiple scales, providing input from both subjects and site raters. Motor performance was improved and motor complications were reduced in the “On” state by Compound 1 relative to placebo treatment as assessed by the Movement Disorder Society Unified Parkinson's Disease Rating Scale (MDS-UPDRS) (FIG. 1). […] (FIGS. 3-4).

[3] = tested on: patients with mild to moderate Parkinson's Disease (PD); test: Unified Dyskinesia Rating Scale (UDysRS) in the Phase 1/2 study; conditions: FIG. 2
Method: as §1, §3, §4

[4] = tested on: patients with mild to moderate Parkinson's Disease (PD); test: Hauser Patient Motor Diary in the Phase 1/2 study; conditions: rated by subjects, oral once daily for 7 days
Method: as §1, §3, §4

[5] = tested on: patients with mild to moderate Parkinson's Disease (PD); test: CISI-PD (Clinical Impression of Severity Index for PD) in the Phase 1/2 study; conditions: versus placebo; FIG. 4
Method: as §1, §3

[6] = Pharmacokinetic profile in the Phase 1/2 study
Method: as §2, §3
Plasma steady state is achieved in the first 48 hours and supports once-a-day dosing for future efficacy trials.

[7] = "On" state, relative to placebo, FIG. 1

SMILES: CN1C(=O)c2c(nn(Cc3ccc(-c4cccc(F)n4)cc3)c2Nc2ccccc2)N2C1=N[C@@H]1CCC[C@@H]12 [Compound 1, (6aR,9aS)-5,6a,7,8,9,9a-hexahydro-5-methyl-3-(phenylamino)-2-((4-(6-fluoropyridin-2-yl)phenyl)methyl)-cyclopent[4,5]imidazo[1,2-a]pyrazolo[4,3-e]pyrimidin-4(2H)-one]
- serious adverse events ([1]; 1 mg to 90 mg orally once daily for 7 days): No serious adverse events
- induction or worsening of motor complications ([1]; PD patients receiving concomitant dopamine replacement therapies): did not induce or worsen motor complications
- effects on vital signs, cardiovascular or laboratory parameters ([1]; compared to placebo): no clinically significant effects
- tolerability ([1]; once-daily oral for 7 days, doses from 1 mg to 90 mg): generally well tolerated
- safety profile ([1]; once-daily oral for 7 days, no titration, 1 mg to 90 mg): favorable safety profile
- side effects of dopamine replacement therapies ([1]; patients on dopamine replacement therapies): reduces the side effects
- UPDRS scores at end of study (EOS) ([2]; 30 days after cessation of treatment, FIG. 1): Scores increase
- motor complications (MDS-UPDRS) [2, 7]: reduced
- motor performance (MDS-UPDRS) [2, 7]: improved
- UPDRS scores ([2]; by day 7 of treatment, PD patients on stable PD therapy, FIG. 1): decrease scores
- MDS-UPDRS total scale scores ([2]; oral once daily for 7 days): reduces scores
- motor symptoms (UPDRS Part III; clinician ratings of the motor manifestations of PD) ([2]; oral once daily for 7 days, on stable PD therapy): reductions; also recorded: reduces scores
- motor complications including dyskinesias (UPDRS Part IV subscale) ([2]; oral once daily for 7 days, Part IV data not shown): reductions; also recorded: reduces scores
- dyskinesia symptoms / motor complications measured by UDysRS ([3]; oral once daily for 7 days): reductions; also recorded: reduces dyskinesia symptoms
- Objective UDysRS Total Score ([3]; subjects with dyskinesia at baseline, after treatment): Improves
- total On time (Hauser Patient Motor Diary) [4]: increased
- "On" time without dyskinesias (Hauser Patient Motor Diary) ([4]; versus placebo): increases on-time without causing dyskinesia; also recorded: increased
- CISI-PD Motor Complications Score [5]: reductions; also recorded: decreased
- time to plasma steady state ([6]; once daily oral dosing): ≤ 48 h
- pharmacokinetics (dose linearity) ([6]; parent drug and metabolites, across 1 mg to 90 mg): linear pharmacokinetics
